According to patent US20120244122A1, “Peptides for the Treatment of HCV Infections” (priority 2009, published 2012):
Where two headings read alike, the source gives them in different places.

Tests used:
[1] = Metabolic stability in human liver microsomes; type: in vitro ADME; conditions: for % Difference: [(deuterated species) − (nondeuterated species)](100)/(nondeuterated species), t1/2 in HLM vs boceprevir; for half-life at 0.25 μM: human, in vitro half-life, 0.5 mg/mL HLM, 0.25 μM test compound, 2 mM NADPH, pH 7.4, 37° C., 0-30 minutes
Experimental: Human liver microsomes (20 mg/mL) were obtained from Xenotech, LLC (Lenexa, Kans.). β-Nicotinamide adenine dinucleotide phosphate, reduced form (NADPH), magnesium chloride (MgCl2), and dimethyl sulfoxide (DMSO) were purchased from Sigma-Aldrich.
7.5 mM stock solutions of Compounds 103, 109, 130, 134, 154, 157 and 158, as well as boceprevir, were prepared in DMSO. The 7.5 mM stock solutions were diluted to 12.5 μM in acetonitrile (ACN). The 20 mg/mL human liver microsomes were diluted to 0.625 mg/mL in 0.1 M potassium phosphate buffer, pH 7.4, containing 3 mM MgCl2. The diluted microsomes (375 μL) were added to wells of a 96-well deep-well polypropylene plate in triplicate. 10 μL of the 12.5 μM test compound was added to the microsomes and the mixture was pre-warmed for 10 minutes. Reactions were initiated by addition of 125 μL of pre-warmed NADPH solution. The final reaction volume was 0.5 mL and contained 0.5 mg/mL human liver microsomes, 0.25 μM test compound, and 2 mM NADPH in 0.1 M potassium phosphate buffer, pH 7.4, and 3 mM MgCl2. The reaction mixtures were incubated at 37° C., and 50 μL aliquots were removed at 0, 5, 10, 20, and 30 minutes and added to shallow-well 96-well plates which contained 50 μL of ice-cold ACN with internal standard to stop the reactions. The plates were stored at 4° C. for 20 minutes after which 100 μl of water was added to the wells of the plate before centrifugation to pellet precipitated proteins. Supernatants were transferred to another 96-well plate and analyzed for amounts of parent remaining by LC-MS/MS using an Applied Bio-systems API 4000 mass spectrometer. 7-ethoxycoumarin (1 μM) was used as the positive control substrate.
The in vitro half-lives (t1/2s) for test compounds are calculated from the slopes of the linear regression of % parent remaining (ln) vs incubation time relationship using the following formula:
in vitro t1/2=0.693/k, where k=−[slope of linear regression of % parent remaining(ln) vs incubation time]
Data analysis is performed using Microsoft Excel Software.
The experiment was repeated four separate times.

hepatitis C virus (HCV) = conditions: treatment-naïve patients, boceprevir combined with peginterferon alpha-2b and ribavirin, cited from earlier work
[2] = patients with hepatitis C; adverse events infrequent (headache, fever, myalgia); cited from earlier work

Row | SMILES | % Difference [1] [%] | half-life at 0.25 μM ([1]; human liver microsomes) [min] | sustained viral response (SVR) rates (hepatitis C virus (HCV); after 12 weeks) | sustained viral response (SVR) rates (hepatitis C virus (HCV); after 24 weeks) | tolerability [2] | half-life at 0.25 μM ([1]; microsomes) [min]
1 | [2H]C([2H])(C(NC(=O)[C@@H]1[C@@H]2[C@H](CN1C(=O)[C@@H](NC(=O)NC(C)(C)C)C(C)(C)C)C2(C)C)C(=O)C(N)=O)C1([2H])C([2H])([2H])C([2H])([2H])C1([2H])[2H] (stereo partly drawn) [Compound 154, (1R,2S,5S)—N-(4-Amino-1-(cyclobutyl-d7)-1,1-d2-3,4-dioxobutan-2-yl)-3-((S)-2-(3-tert-butylureido)-3,3-dimethylbutanoyl)-6,6-dimethyl-3-azabicyclo[3.1.0]hexane-2-carboxamide] | 51.4 | 28.7 | – | – | – | –
2 | [2H]C1([2H])C([2H])([2H])C([2H])(CC(NC(=O)[C@@H]2[C@@H]3[C@H](CN2C(=O)[C@@H](NC(=O)NC(C)(C)C)C(C)(C)C)C3(C)C)C(=O)C(N)=O)C1([2H])[2H] (stereo partly drawn) [Compound 157, (1R,2S,5S)—N-(4-Amino-1-(cyclobutyl-d7)-3,4-dioxobutan-2-yl)-3-((S)-2-(3-tert-butylureido)-3,3-dimethylbutanoyl)-6,6-dimethyl-3-azabicyclo[3.1.0]hexane-2-carboxamide] | 39.9 | 26.6 | – | – | – | –
3 | [2H]C([2H])([2H])C(NC(=O)N[C@H](C(=O)N1C[C@H]2[C@@H]([C@H]1C(=O)NC(CC1CCC1)C(=O)C(N)=O)C2(C)C)C(C([2H])([2H])[2H])(C([2H])([2H])[2H])C([2H])([2H])[2H])(C([2H])([2H])[2H])C([2H])([2H])[2H] (stereo partly drawn) [Compound 109, (1R,2S,5S)—N-(4-Amino-1-cyclobutyl-3,4-dioxobutan-2-yl)-6,6-dimethyl-3-((S)-4,4,4-(methyl-d3)-2-(3-(1,1,1,3,3,3-di(methyl-d3)-2-(methyl-d3)propan-2-yl)ureido)-3,3-di(methyl-d3)butanoyl)-3-azabicyclo[3.1.0]hexane-2-carboxamide] | 21.8 | 23.2 | – | – | – | –
4 | CC(C)(C)NC(=O)NC(C(=O)N1CC2C(C1C(=O)NC(CC1CCC1)C(=O)C(N)=O)C2(C)C)C(C)(C)C (stereo not drawn) [Boceprevir, N-(4-amino-1-cyclobutyl-3,4-dioxobutan-2-yl)-3-(2-(3-tert-butylureido)-3,3-dimethylbutanoyl)-6,6-dimethyl-3-azabicyclo[3.1.0]hexane-2-carboxamide] | – | 19 | 66-74% | 55-56% | well-tolerated | –
5 | [2H]C([2H])([2H])C1(C([2H])([2H])[2H])[C@@H]2[C@@H](C(=O)NC(C(=O)C(N)=O)C([2H])([2H])C3([2H])C([2H])([2H])C([2H])([2H])C3([2H])[2H])N(C(=O)[C@@H](NC(=O)NC(C)(C)C)C(C)(C)C)C[C@@H]21 (stereo partly drawn) [Compound 130, (1R,2S,5S)—N-(4-Amino-1-(cyclobutyl-d7)-1,1-d2-3,4-dioxobutan-2-yl)-3-((S)-2-(3-tert-butylureido)-3,3-dimethylbutanoyl)-6,6-di(methyl-d3)-3-azabicyclo[3.1.0]hexane-2-carboxamide] | 65.3 | 31.4 | – | – | – | –
6 | [2H]C([2H])([2H])C1(C([2H])([2H])[2H])[C@@H]2[C@@H](C(=O)NC(CC3CCC3)C(=O)C(N)=O)N(C(=O)[C@@H](NC(=O)NC(C)(C)C)C(C)(C)C)C[C@@H]21 (stereo partly drawn) [Compound 134, (1R,2S,5S)—N-(4-Amino-1-cyclobutyl-3,4-dioxobutan-2-yl)-3-((S)-2-(3-tert-butylureido)-3,3-dimethylbutanoyl)-6,6-di(methyl-d3)-3-azabicyclo[3.1.0]hexane-2-carboxamide] | 7.9 | – | – | – | – | 19.1
7 | [2H]C([2H])([2H])C1(C([2H])([2H])[2H])[C@@H]2[C@@H](C(=O)NC(CC3CCC3)C(=O)C(N)=O)N(C(=O)[C@@H](NC(=O)NC(C([2H])([2H])[2H])(C([2H])([2H])[2H])C([2H])([2H])[2H])C(C([2H])([2H])[2H])(C([2H])([2H])[2H])C([2H])([2H])[2H])C[C@@H]21 (stereo partly drawn) [Compound 103, (1R,2S,5S)—N-(4-Amino-1-(cyclobutyl)-3,4-dioxobutan-2-yl)-3-((S)-2-(3-tert-butyl-d9-ureido)-3,3-di(methyl-d3)-4,4,4-d3-butanoyl)-6,6-di(methyl-d3)-3-azabicyclo[3.1.0]hexane-2-carboxamide] | 32.0 | 25 | – | – | – | –
8 | [2H]C([2H])([2H])C1(C([2H])([2H])[2H])[C@@H]2[C@@H](C(=O)NC(C(=O)C(N)=O)C([2H])([2H])C3([2H])C([2H])([2H])C([2H])([2H])C3([2H])[2H])N(C(=O)[C@@H](NC(=O)NC(C([2H])([2H])[2H])(C([2H])([2H])[2H])C([2H])([2H])[2H])C(C([2H])([2H])[2H])(C([2H])([2H])[2H])C([2H])([2H])[2H])C[C@@H]21 (stereo partly drawn) [Compound 158, (1R,2S,5S)—N-(4-Amino-1-(cyclobutyl-d7)-1,1-d2-3,4-dioxobutan-2-yl)-3-((S)-2-(3-(tert-butyl-d9)ureido)-3,3-di(methyl-d3)-4,4,4-d3-butanoyl)-6,6-di(methyl-d3)-3-azabicyclo[3.1.0]hexane-2-carboxamide] | 96.3 | 37.2 | – | – | – | –
